Reference: patent EP4711356A1, “TETRAHYDROCARBAZOLE DERIVATIVE, PHARMACEUTICAL COMPOSITION, AND USE THEREOF” (Nain Biotech (Hangzhou) Co., Ltd., priority 2023, dated 2024)

Test system: HeLa cells
Assay: Cell-based pharmacodynamic assay (CellTiter-Glo proliferation inhibition), HeLa
Details: human cervical cancer HeLa cells; 72 hours incubation; CellTiter-Glo luminescence; read-out: IC50 against HeLa cells
Description: Complete media such as RPMI 1640 (Gibco, A1049101), EMEM (ATCC, 30-2003), DMEM (Gibco, C11995500CP), McCoy's 5A (Gibco, 16600082), and F-12K (ATCC, 30-2004) were prepared by supplementing with varying concentrations of FBS (Biological Industries, 04-002-1A) and 1% Penicillin-Streptomycin (Gibco, 15140122) and was thoroughly mixed. Tumor cell lines including HeLa (ATCC, CCL-2; EMEM + 10% FBS), TOV-21G (Cobioer, CBP60292; 1:1 mixture of MCDB 105 and Medium 199 + 15% FBS), OVCAR-3 (ATCC, HTB-161; RPMI 1640 + 20% FBS + 0.01 mg/ml bovine insulin), SK-OV-3 (ATCC, HTB-77; McCoy's 5A + 10% FBS), A2780 (Cobioer, CBP60283; RPMI 1640 + 10% FBS), OC316 (Cobioer, CBP60620; RPMI 1640 + 10% FBS), HuH-7 (Cobioer, CBP60202; DMEM + 10% FBS), SNU-398 (ATCC, CRL-2233; RPMI 1640 + 10% FBS), NCI-H2286 (ATCC, CRL-5938; RPMI 1640 + 5% FBS), NCI-H82 (ATCC, HTB-175; RPMI 1640 + 10% FBS), A549 (ATCC, CCL-185; F-12K + 10% FBS), SK-MEL-3 (ATCC, HTB-69; McCoy's 5A + 15% FBS), PSN-1 (Cobioer, CBP61215; RPMI 1640 + 10% FBS), LoVo (ATCC, CCL-229; F-12K + 10% FBS), DLD-1 (ATCC, CCL-221; RPMI 1640 + 10% FBS), HCT-15 (ATCC, CCL-225; RPMI 1640 + 10% FBS), A498 (ATCC, HTB-44; EMEM + 10% FBS), LNCaP (ATCC, CRL-1740; RPMI 1640 + 10% FBS), SNU-1 (ATCC, CRL-5971; RPMI 1640 + 10% FBS), SCC-9 (Cobioer, CBP60428; DMEM/F12 (1:1) + 10% FBS + 0.5 mM sodium pyruvate + 400 ng/ml hydrocortisone), SU-DHL-5 (ATCC, CRL-2958; RPMI 1640 + 10% FBS), Toledo (ATCC, CRL-2631; RPMI 1640 + 10% FBS), and SJCRH30 (ATCC, CRL-2061; RPMI 1640 + 10% FBS) were thawed. Cells were passaged approximately twice, and those in good growth condition (typically passages 4-6) were selected for experiments. The medium was aspirated, and the cells were washed once with 0.25% trypsin (Invitrogen, 25200-072). The waste liquid was discarded, and 3 mL of fresh trypsin was added to the culture flask for digestion. When the cells began to detach, 9 mL of complete medium was added to neutralize the trypsin digestion, and the mixture was gently mixed. The cell suspension was transferred to a centrifuge tube using a pipette and centrifuged at 1000 rpm for 5 minutes. The supernatant was discarded, and 5 mL of medium was added to the centrifuge tube to gently resuspend the cells evenly. The cell concentration was adjusted to 1×10^4/mL-3×10^4/mL using a cell counter (Beckman Coulter, Vi-cellTM XR). The cell suspension was added to a 96-well plate (Corning, 3903) at 100 µL/well. The plate was labeled with details such as cell name, seeding density, and date, and then placed in a CO2 incubator (Thermo, Thermo 3111) overnight. Test compounds were prepared as 20 mM stock solutions in DMSO (Sigma, D4540-1L) and added to the corresponding cell wells using an HPD300 automated dispenser according to the designed layout. The plates were incubated in a 37°C, 5% CO2 incubator for 72 hours. CellTiter-Glo Buffer was thawed at room temperature. The lyophilized CellTiter-Glo substrate was equilibrated to room temperature. The CellTiter-Glo Buffer was added to the CellTiter-Glo substrate and thoroughly mixed. The cell plates were removed and equilibrated to room temperature, and 50 µL of the mixed CellTiter-Glo reagent was added to each well. The plates were protected from light and shaken for 10 minutes, followed by incubation for 10 minutes. The plates were placed in an Enspire reader (luminescence measurement time: 0.5 s) to record luminescence results. The inhibition rate was calculated using the following formula: Inhibition rate (%) = (1 - (RLU_compound - RLU_blank) / (RLU_DMSO - RLU_blank)) × 100%. Dose-response curves were plotted using XLFit to calculate IC50 values. A four-parameter model was used: [fit = (A + ((B - A) / (1 + ((C/x) ^ D)))]. The test results for HeLa cells are shown in Table 1. Table 1: IC50 values of some test compounds against human cervical cancer HeLa cells

Compound | IC50
O=C1CCCc2c1[nH]c1cccc(C(=O)O[C@@H](CO)c3ccccc3)c21 [Compound B189] | ≤ 500 nM
O=C1CCCc2c1[nH]c1cccc(C(=O)Oc3ccccc3)c21 [Compound B39] | ≤ 500 nM
O=C1CCCc2c1[nH]c1cccc(C(=O)OC3COCC3O)c21 (stereo not drawn) [Compound B186] | ≤ 500 nM
COC(=O)c1ccc(F)c2[nH]c3c(c12)CCCC3=O [Compound B18] | ≤ 500 nM
CCOC(=O)c1cccc2[nH]c3c(c12)CCC(NCCO)C3=O (racemic) [Compound B131] | ≤ 500 nM
CCOC(=O)c1cccc2c1c1c(n2C(=O)c2c[nH]cc2C(F)(F)F)C(=O)CCC1 [Compound C57] | ≤ 500 nM
CCC(=O)Oc1cccc2[nH]c3c(c12)CCCC3=O [Compound B32] | ≤ 500 nM
Cc1ccc2[nH]c3c(c2c1)CCCC3=NCCNC(=O)OC(C)(C)C [Compound E67] | ≤ 200 nM
CCOC(=O)c1cccc2c1c1c(n2C(=O)CCCCCN)C(=O)CCC1 [Compound C42] | ≤ 200 nM
CCOC(=O)c1cccc2c1c1c(n2C(=O)c2ccccc2O)C(=O)CCC1 [Compound C31] | ≤ 200 nM
Cc1ccc2[nH]c3c(c2c1)CCCC3=NCCOCCO [Compound E31] | ≤ 200 nM
Cc1cc(-c2cccc3[nH]c4c(c23)CCCC4=O)ccn1 [Compound B97] | ≤ 500 nM
O=C1CCCc2c1[nH]c1cccc(-c3ccccc3)c21 [Compound B48] | ≤ 500 nM
CC(C)C(=O)Oc1cccc2[nH]c3c(c12)CCCC3=O [Compound B33] | ≤ 200 nM
Cc1ccc2[nH]c3c(c2c1)CCCC3=NCC(C)(C)O [Compound E03] | ≤ 500 nM
COc1ccc2[nH]c3c(c2c1-c1cnn(C)n1)CCCC3=O [Compound B134] | ≤ 200 nM
COC(=O)c1cccc2[nH]c3c(c12)CCCC3=NCCO [Compound E30] | ≤ 200 nM
CCOC(=O)c1cccc2c1c1c(n2C(=O)/C=C/c2ccc(O)c(OC)c2)C(=O)CCC1 [Compound C29] | ≤ 200 nM
CC(O)CCC(C)OC(=O)c1cccc2[nH]c3c(c12)CCCC3=O (stereo not drawn) [Compound B141] | ≤ 200 nM
CCOC(=O)c1cccc2c1c1c(n2C(=O)C2CCCCN2C)C(=O)CCC1 (racemic) [Compound C33] | ≤ 200 nM

Compound | IC50
CCOC(=O)c1cccc2c1c1c(n2C(=O)C(CO)c2ccccc2)C(=O)CCC1 (racemic) [Compound C48] | ≤ 200 nM
CCn1cc(-c2cccc3[nH]c4c(c23)CCCC4=O)cn1 [Compound B155] | ≤ 200 nM
O=C1CCCc2c1[nH]c1cccc(-c3cnc4[nH]ncc4c3)c21 [Compound B50] | ≤ 200 nM
CC(C)(O)C1CN(c2cccc3[nH]c4c(c23)CCCC4=O)C1 [Compound B24] | ≤ 200 nM
COC(=O)c1c(Cl)ccc2[nH]c3c(c12)CCCC3=O [Compound B89] | ≤ 200 nM
O=C1CCCc2c1[nH]c1cccc(-c3cn[nH]c3)c21 [Compound B58] | ≤ 200 nM
Cc1ccc2[nH]c3c(c2c1)CCCC3=NC(Cc1ccc(O)cc1)C(=O)OC(C)(C)C (stereo not drawn) [Compound E40] | ≤ 200 nM
COC(=O)c1cccc2[nH]c3c(c12)CCCC3=NC(C)C(F)(F)F (stereo not drawn) [Compound E70] | ≤ 200 nM
CC(C)n1ncc(-c2cccc3[nH]c4c(c23)CCCC4=O)n1 [Compound B124] | ≤ 200 nM
O=C1CCCc2c1[nH]c1cccc(-c3cnn(C(F)F)c3)c21 [Compound B156] | ≤ 200 nM
C[C@@H](O)COC(=O)c1cccc2[nH]c3c(c12)CCCC3=O [Compound B147] | ≤ 200 nM
COc1ccc2[nH]c3c(c2n1)CCCC3=NCC(=O)OC(C)(C)C [Compound E35] | ≤ 200 nM
CN(C)S(=O)(=O)c1cccc2[nH]c3c(c12)CCCC3=O [Compound B76] | ≤ 200 nM
Cc1ccc2[nH]c3c(c2c1)CCCC3=NC(CC(=O)OC(C)(C)C)C(=O)OC(C)(C)C (stereo not drawn) [Compound E55] | ≤ 200 nM
CCOC(=O)c1cccc2c1c1c(n2C(=O)c2ccc(C)cn2)C(=O)CCC1 [Compound C27] | ≤ 200 nM
C#Cc1ccc(COC(=O)c2cccc3[nH]c4c(c23)CCCC4=O)s1 [Compound B120] | ≤ 200 nM
CCOC(=O)c1cccc2c1c1c(n2C(=O)CCCCC(F)F)C(=O)CCC1 [Compound C51] | ≤ 200 nM
CCOC(=O)c1cccc2c1c1c(n2C(=O)C#CC2(C)COC2)C(=O)CCC1 [Compound C43] | ≤ 200 nM
COC(=O)c1cccc2[nH]c3c(c12)CCCC3=NCC(=O)OC(C)(C)C [Compound E29] | ≤ 200 nM
Cn1cc(-c2cccc3c2c2c(n3C(=O)C3CC(F)(F)C3)C(=O)CCC2)cn1 [Compound C60] | ≤ 200 nM

Now from value to compound:

IC50 | Compound
≤ 200 nM | CCOC(=O)c1cccc2c1c1c(n2C(=O)CCCCCO)C(=O)CCC1 [Compound C55]
≤ 200 nM | CCOC(=O)c1cccc2c1c1c(n2C(=O)/C=C/C(=O)OC)C(=O)CCC1 [Compound C15]
≤ 200 nM | Cc1ccc2[nH]c3c(c2c1)CCCC3=NCCN [Compound E68]
≤ 200 nM | O=C1CCCc2c1[nH]c1cccc(C(=O)OC3CC(F)C3)c21 (stereo not drawn) [Compound B139]
≤ 200 nM | O=C1CCCc2c1[nH]c1cccc(C(=O)OC3CCOC3)c21 (racemic) [Compound B137]
≤ 200 nM | O=C1CCCc2c1[nH]c1cccc(C(=O)OCCC(F)(F)F)c21 [Compound B45]
≤ 200 nM | NC(=O)COC(=O)c1cccc2[nH]c3c(c12)CCCC3=O [Compound B148]
≤ 200 nM | Cc1nc(-c2cccc3[nH]c4c(c23)CCCC4=O)no1 [Compound B99]
≤ 200 nM | Cc1nsc(-c2cccc3[nH]c4c(c23)CCCC4=O)n1 [Compound B71]
≤ 200 nM | CCOC(=O)c1cccc2[nH]c3c(c12)SCCC3=O [Compound B107]
≤ 200 nM | CCOC(=O)c1cccc2c1c1c(n2C(=O)C2COC2)C(=O)CCC1 [Compound C38]
≤ 200 nM | O=C1CCCc2c1[nH]c1cccc(N3CCCC3)c21 [Compound B66]
≤ 200 nM | CCOC(=O)c1cccc2c1c1c(n2C(=O)C2OC2C)C(=O)CCC1 (stereo not drawn) [Compound C30]
≤ 200 nM | CN=C1CCCc2c1[nH]c1cccc(C(=O)OC)c21 [Compound E72]
≤ 200 nM | C=C=Cn1cc(-c2cccc3[nH]c4c(c23)CCCC4=O)cn1 [Compound B173]
≤ 200 nM | CC(=O)c1cccc2[nH]c3c(c12)CCCC3=O [Compound B82]
≤ 200 nM | O=C1CCCc2c1[nH]c1cccc(C(=O)OC3CC(O)C3)c21 (stereo not drawn) [Compound B129]
≤ 200 nM | O=C1CCCc2c1[nH]c1cccc(-c3cnn(CCO)c3)c21 [Compound B181]
≤ 200 nM | CC1(C)CCN(c2cccc3[nH]c4c(c23)CCCC4=O)C1 [Compound B23]
≤ 200 nM | COC(=O)c1cccc2[nH]c3c(c12)CCCC3=NC(C)C [Compound E47]
